Results on seven molecules are retold here after patent publication US20080119463A1, “4-Anilino-3-quinolinecarbonitriles for the treatment of acute myelogenous leukemia (AML)” (Wyeth, priority 2006, published 2008).

Like-named read-outs stand apart in the source and are kept apart here.

For one experiment, the system named is U937 cells. The experiment can be described thus: proliferation assay of human AML cell line U937 (Cell Titer Glo, 3 days). Conditions: 3 days growth, Cell Titer Glo luminescence, read-out: IC50 (μM) from proliferation assays of human AML cell lines. Type of experiment: cell-based. As to the method:
(§1) These compounds were prepared according to previously published methods (Boschelli, D. H., et. al., J. Med. Chem., 44, 3965 (2001); Boschelli, D. H., et. al., J. Med. Chem., 44, 822 (2001); Boschelli, D. H., et. al., Bioorg. Med. Chem. Lett., 13, 3797 (2003); Boschelli, D. H., et. al., J. Med. Chem., 47, 1599 (2004); and Ye, F. et al., 221st National Meeting of the American Chemical Society, San Diego, Calif. (April, 2001)), hereby incorporated by reference. For this study, 1×10^2 to 1×10^3 cells were plated in 95 μl of growth medium in each well of a 96-well microtiter plate. Compounds were added in 5 μl of medium such that the final concentration of DMSO in the medium was 0.25%. Cells were allowed to grow in a cell culture incubator (37° C.) for 3 days, at which time 100 μl of Promega Cell Titer Glo agent was added. Luminescence (lum) was measured in an Envision microplate reader. Data were processed by first obtaining % inhibition (100−(lum+cpd/lum−cpd); cpd […]). The data were then analyzed with the LSW IC50 calculation model ligand-receptor binding/hyperbolic (y=Bmax/(1+(x/IC50)). The IC50 is the concentration of test compound needed to reduce the total amount of cell proliferation by 50%.
For relevant experiments described above, standard growth medium for a particular cell line was used. For example, the growth medium for U937 cells is: RPMI 1640 supplemented with glutamine, 10% fetal bovine serum, and 50 μg/ml of gentamicin.
(In general: In ATP-based viability assays light output follows the ATP content of the culture.)

A further experiment concerns KG-1a cells. The experiment can be described thus: proliferation assay of human AML cell line KG-1a (Cell Titer Glo, 3 days). In kind it is cell-based. Particulars: 72 h, 3 days growth, Cell Titer Glo luminescence, read-out: IC50 (μM) from proliferation assays of human AML cell lines. As to the method:
as §1
For relevant experiments described above, standard growth medium for a particular cell line was used. […]

With `COc1cc2cc3c(Nc4cc(OC)c(OC)c(OC)c4)c(C#N)cnc3cc2cc1OCCN1CCOCC1` [4-(3,4,5-methoxy-anilino)-7-methoxy-8-[2-(4-morpholinyl)-ethoxy]-benzo[g]-quinoline-3-carbonitrile], the IC50 in the experiment on U937 cells was 2.1 µM. In the case of `COc1cc(Nc2c(C#N)cnc3cc4cc(OCCN5CCOCC5)c(OC)cc4cc23)c(Cl)cc1C` [4-(2-chloro-4 methyl-5-methoxy-anilino)-7-methoxy-8-[2-(4-morpholinyl)-ethoxy]-benzo[g]-quinoline-3-carbonitrile], the IC50 in the experiment with U937 cells (Homo sapiens, U-937, 72 h) came to 1.2 µM.

For the molecule `COc1cc(Nc2c(C#N)cnc3cc(OCCCN4CCN(C)CC4)c(OC)cc23)c(Cl)cc1Cl` [4-[(2,4-dichloro-5-methoxy-phenyl)amino]-6-methoxy-7-[3-(4-methyl-piperazin-1-yl)-propoxy]-quinoline-3-carbonitrile], in the experiment with KG-1a cells, the IC50 is 1.11 µM. On to `COc1cc(Nc2c(C#N)cnc3cc(-c4ccc(CN5CCOCC5)cn4)ccc23)c(Cl)cc1Cl` [4-(2,4-dichloro-5-methoxy-anilino)-7-{5-[(4-morpholinyl)-methyl]-2-pyridinyl]-quinoline-3-carbonitrile], for which, in the experiment with U937 cells (Homo sapiens, U-937, 72 h), the IC50 was 0.73 µM.

On to `COc1cc(Nc2c(C#N)cnc3cc4cc(OCCN5CCOCC5)c(OC)cc4cc23)c(Cl)cc1Cl` [4-(2,4-dichloro-5-methoxy-anilino)-7-methoxy-8-[2-(4-morpholinyl)-ethoxy]-benzo[g]-quinoline-3-carbonitrile], for which the IC50 with U937 cells (Homo sapiens, U-937, 72 h) was 5.1 µM.

For `COc1cc(Nc2c(C#N)cnc3cc(-c4ccc(CN5CCN(C)CC5)cn4)ccc23)c(Cl)cc1Cl` [4-(2,4-dichloro-5-methoxy-anilino)-7-{5-[(4-methyl-piperazin-1-yl)-methyl]-2-pyridinyl]-quinoline-3-carbonitrile], the IC50 in the experiment with U937 cells (Homo sapiens, U-937, 72 h) worked out at 2.4 µM. For `COc1cc(Nc2c(C#N)cnc3cc(-c4coc(CN5CCN(C)CC5)c4)c(OC)cc23)c(Cl)cc1Cl` [4-[(2,4-dichloro-5-methoxy-phenyl)amino]-6-methoxy-7-{5-[(4-methyl-piperazin-1-yl)methyl]-3-furyl}-quinoline-3-carbonitrile], the IC50 with KG-1a cells stood at 0.78 µM.
